The structures appear in SMILES notation.

Broadly, the AUC is concentration integrated over time. A low value points to low exposure. One may read the Cmax as the maximum level reached in the sampled fluid or tissue. A word on the half-life: it is how long it takes for the measured level to halve. The low end stands for rapid decline, the high end for slow decline.

Data set [1] has as its target T1, FOXM1 (Homo sapiens, UniProt Q08050).
T1 sequence (Q08050 1-763): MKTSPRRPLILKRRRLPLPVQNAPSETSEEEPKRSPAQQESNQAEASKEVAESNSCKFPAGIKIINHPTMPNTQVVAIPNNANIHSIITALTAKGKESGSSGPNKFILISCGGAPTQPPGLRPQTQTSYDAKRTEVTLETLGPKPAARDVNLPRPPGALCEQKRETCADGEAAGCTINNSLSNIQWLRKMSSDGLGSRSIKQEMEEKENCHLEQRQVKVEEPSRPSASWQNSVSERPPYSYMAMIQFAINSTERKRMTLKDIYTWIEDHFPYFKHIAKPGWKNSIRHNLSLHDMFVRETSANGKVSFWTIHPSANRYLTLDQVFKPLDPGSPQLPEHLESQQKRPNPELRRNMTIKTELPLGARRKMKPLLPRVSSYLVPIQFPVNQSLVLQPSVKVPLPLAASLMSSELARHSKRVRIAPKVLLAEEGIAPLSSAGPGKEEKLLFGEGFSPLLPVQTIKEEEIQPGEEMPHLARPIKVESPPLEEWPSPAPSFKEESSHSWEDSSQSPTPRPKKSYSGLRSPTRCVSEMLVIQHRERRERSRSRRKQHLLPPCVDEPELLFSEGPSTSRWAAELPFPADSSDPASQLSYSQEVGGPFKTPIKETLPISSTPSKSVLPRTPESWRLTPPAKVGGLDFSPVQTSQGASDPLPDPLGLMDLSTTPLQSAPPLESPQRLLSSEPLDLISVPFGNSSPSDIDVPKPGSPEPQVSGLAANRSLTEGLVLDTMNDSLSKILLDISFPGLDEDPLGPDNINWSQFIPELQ
The data set is described as follows: Intracellular localization of FOXM1 (immunofluorescence, nuclear/cytoplasmic fractionation). The arrangement: endogenous in cells; host or cells: MDA-MB-231, MCF7. To be noted: 24 h, Western blot of nuclear and cytoplasmic extracts. It counts as cell-based. The method, then:
(§1) In some cases, treatments with compound were done in the presence of the proteasome inhibitor MG132 (Calbiochem) as described in the figure legend. […] Band intensities were analyzed with Licor Odyssey 2.1 software. All blots shown together derive from the same experiment and were processed in parallel. Full uncropped images of blots are shown as supplementary figures in the Supplementary Information file. Molecular weight markers were Rainbow markers from GE Healthcare (38–225 kDa) or Precision Plus Dual Color Markers from Biorad (37–250 kDa).

Data set [2] concerns the target T1, FOXM1. The data set can be described thus: Cellular FOXM1 protein level by Western blot. It is filed as cell-based. Also noted: endogenous in cells; host or cells: MDA-MB-231, MCF7. To be noted: MDA-MB-231 or MCF7 cells over time; NB-55 5/8 µM, NB-73 1.5/4 µM, NB-115 4 µM, FDI-6 8 µM. The method, then: as §1, with “For Western blot analysis, whole-cell extracts were prepared using 1X RIPA lysis buffer (Thermo Fisher) supplemented with 1X protease inhibitor cocktail (Millipore Sigma). […] In some” for “In some”
Background: A western blot detects proteins with antibodies after separation by electrophoresis.

Data set [3] relates to DT22 breast tumor xenografts. The data set can be described thus: DT22 human breast tumor xenograft growth in NSG mice. It is filed as in vivo. How it is done:
For examination of the effects of compounds on breast tumor growth suppression, intact female NOD/SCID-gamma (NSG) mice were used as detailed previously.[39] DT-22 breast cancer cells (1 × 10^6 cells/mouse) were injected s.c. into the right axial mammary gland. Mice received s.c. injection or oral gavage daily or every second or third day as indicated, with vehicle or treatment compound, and tumor volume (length × width^2/2) was monitored over time.

Data set [4] relates to human breast cancer cell lines (DT22, MCF7, T47D, BT474, MDA-MB-453, MDA-MB-468, MDA-MB-231). The data set can be described thus: Cell proliferation (WST-1) in panel of breast cancer cell lines. It is filed as cell-based. How it is done:
WST-1 assay (Roche, Basel, Switzerland) was used to quantify cell viability as described.[38] Absorbance was measured at 450 nm using a VICTOR X5 PerkinElmer 2030 Multilabel Plate Reader. All assays were performed in triplicate and analyzed using Graph Pad Prism 8.0.
(Tetrazolium assays rely on reduction of a dye to a coloured formazan, in cell work by metabolically active cells.)

Data set [5] is described as follows: Pharmacokinetics in mice after single s.c. or oral dose. It is filed as in vivo, female CD1 mice. The following applies: for AUC / Cmax / half-life: female, CD1, mouse, 40 mg/kg, single dose, plasma.
Procedure: The pharmacokinetics of compounds were monitored after single dose administration into female CD1 mice (7–9 weeks of age) via s.c. injection or oral gavage, as described.[39] For s.c. injection, each compound was dissolved in DMSO and then mixed with corn oil for a total injection volume of 100 μL (10% DSMO + 90% corn oil) per mouse. For oral gavage, compounds were administered in a 200 µL formulation of 9/0.5/0.5/90 parts of PEG400/Tween80/Povidone/0.5% Carboxymethylcellulose in DI water. […] Compounds were quantified by LC-MS/MS at the University of Illinois Metabolomics Core Facility. The data were fitted to a non-compartment model.
Data set [6] concerns FOXM1 target gene expression in MCF7 cells. The data set can be described thus: FOXM1 target gene expression by qRT-PCR. It is filed as cell-based, human. The following applies: MCF7, 24 h, compound at its IC50 for proliferation.

On to `Clc1ccc(C(=C2C3CC4CC(C3)CC2C4)c2ccc(OCCCCCCN3CCCC3)cc2)cc1` [NB-55], for which the “intracellular localization of FOXM1” value at FOXM1 [1] is reported as “does not change the intracellular localization of FOXM1”. For the same compound, on FOXM1 [2], the “intracellular level of FOXM1” value is “reduced the intracellular level of FOXM1”. The tumor suppression entry in data set [3] (20 or 40 mg/kg doses (data not shown)) is “only marginally effective”. In data set [3] (DT22 tumors, NSG mice, 100 mg/kg oral gavage daily), the “growth of human breast tumor xenografts” value was “very effectively suppressed the growth”. Moreover, the IC50 in data set [4] (Homo sapiens, breast cancer cell lines, read-out: IC50 for inhibition of proliferation) lay in the range of 2 to 10 µM. The “reduced potency in suppression of cell proliferation” value in data set [4] (dose-response studies in cells in culture) is listed as 5 fold. Besides, the “PK properties (half-lives and blood levels achieved)” value in data set [5] (after oral administration) is “good PK properties”. Besides, the “PK properties (half-lives and blood levels achieved)” value in data set [5] (after s.c. administration) was “good PK properties”. In addition, in data set [5] (oral), the AUC came out at 35.7 µM·h, the highest level (Cmax) was 2380 nM and the half-life was 28.8 h. For the same compound, in data set [5] (sc), the area under the curve (AUC) is 34.7 µM·h, the Cmax stood at 1200 nM and the half-life was 135 h. Moreover, in data set [6], the “expression of ATF3, a gene suppressed by FOXM1” value is recorded as “increased expression of ATF3” and the “expression of FOXM1 stimulated target genes (FOXM1C, AURKB, CCNB1, PLK1)” value is recorded as “significantly reduced the expression”.

The record behind these values is article PMC6884575, “Suppression of FOXM1 activities and breast cancer growth in vitro and in vivo by a new class of compounds” (NPJ Breast Cancer, 2019).
